# Measurements from patent publication US20230416205A1, “COMPOUNDS, COMPOSITIONS, AND METHODS” (Denali Therapeutics Inc, priority 2020, published 2023).
# Like-named read-outs stand apart in the source and are kept apart here.
# System: NLRP3
# Test: IL-1β secretion assay in PMA-differentiated, LPS/nigericin-stimulated THP-1 cells (384-well, ELISA read-out)
# Assay type: cell-based, human
# How it was run: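 Secreted IL-1β quantified by capture ELISA from supernatants of PMA-differentiated THP-1 cells (30K per well). Sequence: LPS 25 ng/mL priming 2 h, compound 1 h, nigericin 2 h; dose-responses normalized between high (LPS plus 5 μM nigericin) and low (LPS alone) controls.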
# [1] = Homo sapiens, THP-1, IL-1β secretion, PMA-differentiated THP-1 cells, LPS then nigericin stimulation, ELISA read at 450 nm, read-out: Activity
# [2] = Homo sapiens, THP-1, Table 4, IL-1β secretion, LPS/nigericin-stimulated THP-1 cells, read-out: IC50
# [3] = Table 4, IL-1β secretion, LPS/nigericin-stimulated THP-1 cells, read-out: IC50
Structure (SMILES),IC50 [1] [µM],IC50 [2] [µM],"IC50 (IL-1β secretion, PMA-differentiated THP-1 cells, LPS then nigericin stimulation, ELISA read at 450 nm, read-out: Activity) [µM]",IC50 [3] [µM]
"O=C(CN1CC2(CC2)c2cc(Br)ccc2C1=O)Nc1cccc2ccncc12 [Example 148, 2-(6-bromo-1-oxospiro[3H-isoquinoline-4,1′-cyclopropane]-2-yl)-N-isoquinolin-8-ylacetamide]",< 10,1.79,–,–
"O=C(CN1CC2(CC2)c2cc(Br)ccc2C1=O)Nc1cccc2nccn12 [Example 116, 2-(6-bromo-1-oxospiro[3H-isoquinoline-4,1′-cyclopropane]-2-yl)-N-imidazo[1,2-a]pyridin-5-ylacetamide]",< 10,4.16,–,–
"O=C(CN1CC2(CC2)c2cc(Br)ccc2C1=O)NCC1COC1 [Example 117, 2-(6-bromo-1-oxospiro[3H-isoquinoline-4,1′-cyclopropane]-2-yl)-N-(oxetan-3-ylmethyl)acetamide]",> 15,19.8,–,–
"O=C(CN1CC2(CC2)c2cc(Br)ccc2C1=O)NCc1ccncc1 [Example 122, 2-(6-bromo-1-oxospiro[3H-isoquinoline-4,1′-cyclopropane]-2-yl)-N-(pyridin-4-ylmethyl)acetamide]",> 15,29.9,–,–
"Cc1cnc(NC(=O)CN2CC3(CC3)c3cc(Br)ccc3C2=O)nc1C [Example 217, 2-(6-bromo-1-oxospiro[3H-isoquinoline-4,1′-cyclopropane]-2-yl)-N-(4,5-dimethylpyrimidin-2-yl)acetamide]",< 10,0.862,–,–
"Cn1ccnc(NC(=O)CN2CC3(CC3)c3cc(Br)ccc3C2=O)c1=O [Example 348, 2-(6-bromo-1-oxospiro[3H-isoquinoline-4,1′-cyclopropane]-2-yl)-N-(4-methyl-3-oxopyrazin-2-yl)acetamide]",–,1.32,–,–
"O=C(CN1CC2(CC2)c2cc(Br)ccc2C1=O)Nc1ccc(C(F)F)cn1 [Example 195, 2-(6-bromo-1-oxospiro[3H-isoquinoline-4,1′-cyclopropane]-2-yl)-N-[5-(difluoromethyl)pyridin-2-yl]acetamide]",< 10,1.01,–,–
"O=C(CN1CC2(CC2)c2cc(C3CCC3)ccc2C1=O)Nc1ncc(F)cn1 [Example 87, 2-(6-cyclobutyl-1-oxospiro[3H-isoquinoline-4,1′-cyclopropane]-2-yl)-N-(5-fluoropyrimidin-2-yl)acetamide]",< 10,5.39,–,–
"O=C(CN1CC2(CC2)c2c(ccc(C3C[C@H]3F)c2F)C1=O)Nc1ncc(F)cn1 (single isomer, unassigned) [Example 303, 2-[5-fluoro-6-[(1r,2r)-2-fluorocyclopropyl]-1-oxospiro[3H-isoquinoline-4-1′-cyclopropane]-2-yl]-N-(5-fluoropyrimidin-2-yl)acetamide]",–,1.44,–,–
"O=C(CN1CC2(CC2)c2nc(C(F)(F)F)ccc2C1=O)Nc1ncccn1 [Example 31, 2-[5-oxo-2-(trifluoromethyl)spiro[7H-1,6-naphthyridine-8,1′-cyclopropane]-6-yl]-N-pyrimidin-2-ylacetamide]",< 10,2.41,–,–
"CN1CC(NC(=O)CN2CC3(CC3)c3cc(Br)ccc3C2=O)CCC1=O (stereo not shown) [Example 21, 2-(6-bromo-1-oxo-spiro[3H-isoquinoline-4,1′-cyclopropane]-2-yl)-N-(1-methyl-6-oxo-3-piperidyl)acetamide]",< 10,6.1,–,–
"O=C(CN1CC2(CC2)c2cc([C@@]3(F)C[C@@H]3F)ccc2C1=O)Nc1ncc(F)cn1 (single isomer, unassigned) [Example 252, 2-[6-[(1r,2r)-1,2-difluorocyclopropyl]-1-oxospiro[3H-isoquinoline-4,1′-cyclopropane]-2-yl]-N-(5-fluoropyrimidin-2-yl)acetamide]",–,–,< 10,0.454
"O=C(CN1C[C@@]2(C[C@@H]2F)c2c(ccc(Br)c2F)C1=O)Nc1ncccn1 (single isomer, unassigned) [Example 224, 2-[(2′s,4r)-6-bromo-2′,5-difluoro-1-oxospiro[3H-isoquinoline-4,1′-cyclopropane]-2-yl]-N-pyrimidin-2-ylacetamide]",< 10,0.049,–,–
"O=C(CN1CC2(CC2)c2cc(Br)ccc2C1=O)Nc1ncc(C(F)(F)F)cn1 [Example 193, 2-(6-bromo-1-oxospiro[3H-isoquinoline-4,1′-cyclopropane]-2-yl)-N-[5-(trifluoromethyl)pyrimidin-2-yl]acetamide]",< 10,0.24,–,–
"COc1ccnc(NC(=O)CN2CC3(CC3)c3cc(Br)ccc3C2=O)n1 [Example 338, 2-(6-bromo-1-oxospiro[3H-isoquinoline-4,1′-cyclopropane]-2-yl)-N-(4-methoxypyrimidin-2-yl)acetamide]",–,1.58,–,–
"O=C(CN1CC2(CC2)c2cc(Br)ccc2C1=O)Nc1ccc2cnsc2c1 [Example 398, N-(1,2-benzothiazol-6-yl)-2-(6-bromo-1-oxospiro[3H-isoquinoline-4,1′-cyclopropane]-2-yl)acetamide]",–,1.91,–,–
"Cn1nccc1CNC(=O)CN1CC2(CC2)c2cc(Br)ccc2C1=O [Example 124, 2-(6-bromo-1-oxospiro[3H-isoquinoline-4,1′-cyclopropane]-2-yl)-N-[(2-methylpyrazol-3-yl)methyl]acetamide]",> 15,27.7,–,–
"O=C(CN1CC2(CC2)c2c(ccc(OC(F)F)c2F)C1=O)Nc1ncc(F)cn1 [Example 310, 2-[6-(difluoromethoxy)-5-fluoro-1-oxospiro[3H-isoquinoline-4,1′-cyclopropane]-2-yl]-N-(5-fluoropyrimidin-2-yl)acetamide]",–,1.06,–,–
"O=C(CN1C[C@@]2(C[C@@H]2F)c2cc(C(F)(F)F)ccc2C1=O)Nc1ncc(C(F)(F)F)cn1 (single isomer, unassigned) [Example 242, 2-[(2′s,4r)-2′-fluoro-1-oxo-6-(trifluoromethyl)spiro[3H-isoquinoline-4,1′-cyclopropane]-2-yl]-N-[5-(trifluoromethyl)pyrimidin-2-yl]acetamide]",< 10,–,–,1.29
"O=C(CN1CC2(CC2)c2cc(Br)ccc2C1=O)Nc1cnccn1 [Example 411, 2-(6-bromo-1-oxospiro[3H-isoquinoline-4,1′-cyclopropane]-2-yl)-N-pyrazin-2-ylacetamide]",–,1.34,–,–
"O=C(CN1CC2(CC2)c2cc(Br)ccc2C1=O)Nc1ccc(-c2nnn[nH]2)cc1 [Example 172, 2-(6-bromo-1-oxospiro[3H-isoquinoline-4,1′-cyclopropane]-2-yl)-N-[4-(1H-tetrazol-5-yl)phenyl]acetamide]",> 15,23.7,–,–
"COC(=O)N1CCC[C@@H](NC(=O)CN2CC3(CC3)c3cc(Br)ccc3C2=O)C1 [Example 71, methyl (3R)-3-[[2-(6-bromo-1-oxo-spiro[3H-isoquinoline-4,1′-cyclopropane]-2-yl)acetyl]amino]piperidine-1-carboxylate]",< 10,6.96,–,–
"COC1(C)CC(NC(=O)CN2CC3(CC3)c3cc(Br)ccc3C2=O)C1 (stereo not drawn) [Example 341, 2-(6-bromo-1-oxospiro[3H-isoquinoline-4,1′-cyclopropane]-2-yl)-N-(3-cis-methoxy-3-methylcyclobutyl)acetamide]",–,–,–,2.41
"O=C(CN1CC2(CC2)c2cc(Br)ccc2C1=O)Nc1nc2c(Cl)cccn2n1 [Example 429, 2-(6-bromo-1-oxospiro[3H-isoquinoline-4,1′-cyclopropane]-2-yl)-N-(8-chloro-[1,2,4]triazolo[1,5-a]pyridin-2-yl)acetamide]",–,1.66,–,–
